This is an account of results in patent US9555086B2, “Compositions and methods for inducing an immune response” (The Regents of the University of Michigan, priority 2010, dated 2017).

The subject of one experiment is NO signaling in DC. Nature of the experiment: NO production in bone marrow-derived CD11c+ dendritic cells (DAF-2DA). Conditions: 100 μg/ml 15mer peptide; Balb/c DC; compared to ISL-negative peptides. It is filed as cell-based, mouse. The procedure:
Bone marrow cells from Balb/c (A and B) or DBA/1 (C and D) mice were differentiated into DCs in culture with GM-CSF ([…]) and IL-4 ([…]). CD11c+ DCs were purified using magnetic beads with >95% purity. DCs were then incubated with SE-positive (65-79*0401 or 65-79*0404), or with SE-negative (65-79*0402 or 65-79*0403) 15mer peptides and NO production was measured as described below. The results are expressed as mean±SEM fluorescence units (FU), or FU per minute. *p<0.01 compared to all ligand controls.
DCs play a key role in immune regulation. […] DC cells were incubated over time with 100 μg/ml of ISL-positive or -negative 15mer peptides, and NO production was measured.
To determine the rate of NO production, cells were loaded with 20 μM of the fluorescent NO probe 4,5-diaminofluorescein diacetate (DAF-2DA) and the fluorescence level was recorded every 5 minutes over a period of 500 minutes using a Fusion αHT system (PerkinElmer Life Sciences) at an excitation wavelength of 488 nm and emission wavelength of 515 nm. To determine IDO enzymatic activity, the generation of its product, kynurenine was measured (Takikawa et al. 1988. J Biol Chem 263:2041-2048.; herein incorporated by reference in its entirety). Cytokine concentrations were measured in cell culture supernatants using a Luminex platform (Millipore Corporation, Danvers, Mass.). […]

A further experiment deals with CD4+IL17A+ T cells. The experiment is described as follows: Th17 differentiation and IL-17 production in DC/CD4+ T cell co-culture. It is filed as cell-based, mouse. Particulars: peptide-stimulated DCs; naïve T cells, Th17-polarizing cocktail, 6 days. The protocol:
DBA/1 bone marrow-derived CD11c+DCs were cultured overnight in the presence or absence of (A) ISL 65-79*0401 or ISL-negative control 65-79*0402, or (B) ISL-positive T-DRB1*0401 tetramers, versus ISL-negative T-DRB1*0301, or T-DRB1*1501 tetramers. Syngeneic splenic CD4+CD25−CD62L+CD44− naïve T cells plus a Th17-differentiation cytokine/antibody cocktail were then added to the culture and incubated for 6 days. Intracellular IL17A was determined by flow cytometry. On the left: a representative experiment, one of three repetitions, showing percentages of CD4+IL17A+ cells as dot plots. On the right: bar graphs show results presented as mean percentage±SD of replicate samples.
(A) DBA/1 bone marrow-derived CD11c+ DCs were cultured overnight with different peptidic ligands as above. Syngeneic splenic CD4+ T cells plus a Th17-polarizing cocktail were added to the culture and incubated for 6 days. IL-17A-positive cells were quantified by flow cytometry. On the left: dot plots showing percentage of CD4+IL17A+ T cells. […]
After 6 days, cells were stimulated with PMA (5 ng/ml) and ionomycin (500 ng/ml) for the last 6 hrs of culture. […] Mean florescence intensity and percentages of stained cells were determined by flow cytometry.

In another experiment the test system is Th17 cells. The experiment is described as follows: ISL polarizing effect in vivo (CII in CFA immunization). Details: species or system DBA/1 mice. The procedure: (A) DBA/1 mice were immunized with CII in CFA in the presence of PBS, 65-79*0401 or 65-79*0402. On day 7, cells from draining lymph nodes were isolated, cultured for 6 hours with PMA, Ionomycin and Brefeldin A and then stained with anti-mouse CD4, IL17A and IFN-γ as above. On the left: Representative dot plots showing percentages of IL17A+ and IFN-γ+ cells obtained from gated CD4+ cells. On the right, bar graphs showing results as mean±SD of duplicate experiments. (B) DBA/1 and CII-TCR Tg mice were immunized as in (A). On day 7, splenic cells were isolated and cultured with the synthetic peptide CII260-267 (5 μg/ml). Supernatants were collected every 24 hours and assayed for IL-17 levels by ELISA.
Mice were injected subcutaneously in the footpad with 100 μg of chicken collagen type II (CII) (Chondrex, Inc, Redmond, Wash.) emulsified in CFA (4 mg/ml). The inoculums contained 10 μg of either ISL-positive 65-79*0401 or ISL-negative 65-79*0402 ligands in PBS, or an equal volume of PBS alone. Animals were sacrificed 7 days after immunization. For Th17 quantification studies, inguinal and popliteal lymph nodes were collected and single cell suspensions were prepared. Unfractionated lymph node cells were cultured with PMA, Ionomycin and Brefeldin A for 6 hours as above. Cells were stained with FITC anti-mouse CD4 or isotype controls, followed by fixation and permeabilization using a Cytofix-Cytoperm™ kit. After permeabilization, intracellular staining was performed using PE-conjugated anti-mouse IL17A and APC-conjugated anti-mouse IFN-γ and cells were analyzed by flow cytometry as above. To measure IL-17 production, splenocytes from mice immunized as above were stimulated in vitro with 5 μg of CII259-273 peptide. At different time points thereafter, supernatants were collected and assayed for IL-17 by ELISA as above.

For H-KDLLEQKRAAVDTYC-NH2 [65-79*0401], the NO production entry with NO signaling in DC is listed as “much more robust NO production”. Moreover, the “differentiation of CD4+IL17A+ T cells” value in the experiment with CD4+IL17A+ T cells was “significant increase”. In the experiment with Th17 cells (10 μg co-administered with CII in CFA, footpad, day 7), the “Th17 abundance in draining lymph nodes” value is on record as “dramatically increased”. For the same substance, the “CII-stimulated IL-17 production by splenocytes” value in the experiment on Th17 cells (compared to mice co-immunized with 65-79*0402) is “significantly more robust”. Further, the “frequency of Th1 (IFNγ-positive) cells” value with Th17 cells (draining lymph nodes, day 7) is recorded as “no change”.
